# What was measured:
# [1] = target: T1, Glucagon receptor (Homo sapiens, UniProt P47871); assay: Antagonist activity against glucagon receptor; […]; assay type: functional
# [2] = target: Mitogen-activated protein kinase 14 (Homo sapiens, UniProt Q16539); assay: Inhibitory activity against Mitogen-activated protein kinase 14, p38-alpha; No activity
# [3] = target: T1, Glucagon receptor; assay: Antagonist activity against glucagon receptor; assay type: functional
# T1 sequence (P47871 whole entry): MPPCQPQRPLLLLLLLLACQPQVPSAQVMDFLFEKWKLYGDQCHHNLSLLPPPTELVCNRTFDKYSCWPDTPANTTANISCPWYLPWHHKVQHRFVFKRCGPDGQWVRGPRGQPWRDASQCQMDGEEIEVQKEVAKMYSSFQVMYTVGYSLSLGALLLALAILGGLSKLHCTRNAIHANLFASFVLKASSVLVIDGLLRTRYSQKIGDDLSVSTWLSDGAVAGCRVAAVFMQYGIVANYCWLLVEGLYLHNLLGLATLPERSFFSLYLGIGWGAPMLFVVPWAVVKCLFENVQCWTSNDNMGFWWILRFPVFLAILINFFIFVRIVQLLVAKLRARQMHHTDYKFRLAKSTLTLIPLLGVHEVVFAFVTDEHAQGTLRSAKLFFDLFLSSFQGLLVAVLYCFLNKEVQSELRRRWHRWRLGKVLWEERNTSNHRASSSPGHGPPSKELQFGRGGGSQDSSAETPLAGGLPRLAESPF
# Mitogen-activated protein kinase 14, sequence (Q16539 whole entry): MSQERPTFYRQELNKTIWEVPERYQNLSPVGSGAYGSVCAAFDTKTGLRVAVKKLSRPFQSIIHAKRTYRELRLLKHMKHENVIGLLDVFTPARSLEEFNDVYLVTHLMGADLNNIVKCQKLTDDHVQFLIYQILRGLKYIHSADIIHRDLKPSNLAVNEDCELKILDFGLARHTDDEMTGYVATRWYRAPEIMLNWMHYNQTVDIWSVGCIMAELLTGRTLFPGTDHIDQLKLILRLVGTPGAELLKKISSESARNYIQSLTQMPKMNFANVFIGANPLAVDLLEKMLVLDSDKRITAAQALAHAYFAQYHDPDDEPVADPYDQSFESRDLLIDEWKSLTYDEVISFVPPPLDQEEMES
SMILES,IC50 [1],IC50 [2],IC50 [3]
O=C(O)c1ccc(-c2cc(-c3ccc(F)cc3)c(-c3ccncc3)[nH]2)cc1,Not Active,,
CC(C)c1cc(-c2ccc(Cl)cc2)[nH]c1-c1ccncc1,,Not Active,32 nM
